Legend:
endogenous MLKL in MDF = endogenous MLKL in MDF (Mus musculus (Mouse), UniProt Q9D2Y4); experiment: Degradation assay: endogenous MLKL in MDF (western blot); settings: MDF cells, 24 h incubation with compound, MLKL adjusted for loading with GAPDH, normalized to DMSO only control, read-out: Degradation of endogenous MLKL in MDF (DC50 cell-based assay)
Description: Degradation Assay: Screening Compounds Procedure to Evaluate the Activity of Compounds in Degrading Endogenous MLKL in Human and Mouse Cell
The mouse dermal fibroblast (MDF) cell line was seeded the day before the experiment in a 24-well plate at a cell density of […] per well in a volume of 0.5 mL per well and left to attach overnight. The human monocyte cell line (U937) was seeded on the day of the experiment in a 24-well plate at a cell density of […] per well in a volume of 0.5 mL per well.
The compound was diluted in DMSO with a starting concentration of 10 mM and titrated stepwise with a dilution of 1:5. 0.5 μL of the compound dilution was added to the appropriate well to achieve a final concentration of 10; 2; 0.4; 0.08 and 0.016 μM. A DMSO only well was included as control.
The cells were incubated for 24 h in the presence of the compound at 37° C. and 10% CO2.
After the 24 h incubation period, the medium was removed and cells washed with 0.5 mL PBS. The cells were then lysed directly in 60 μL of 1×SDS gel loading buffer.
The cell lysate was heat-denatured at […] for 10 min. 10 μL of lysate per well were run on 18-well 4-15% Criterion TGX stain free gels (BIO-RAD). The proteins were then transferred onto nitrocellulose membrane with a wet transfer protocol in the Criterion Blotter (BIO-RAD).
Membranes were blocked with 5% skim milk in TBST. Primary antibody against MLKL (clone 3H1, MABC604 Merck) was used at 1:2000 dilution in TBST with 1% BSA and left shaking over night at 4° C. After washes with TBST, the membranes were incubated with goat anti-rat IgG HRP-conjugated antibody (Southern Biotech) in 1% skim milk TBST at 1:10000 dilution for 1 h at room temperature. After TBST washes the bands were imaged on the ChemiDoc MP Imaging System (BIO-RAD) with Immobilion Western Chemiluminescent HRP Substrate Forte (Millipore). The loading control GAPDH was probed for with rabbit anti-GAPDH (CST 14C10) at 1:2000 dilution in 1% BSA TBST over night at 4° C. TBST washes were followed by incubation with goat anti-rabbit IgG HRP-conjugated antibody (Southern Biotech) in 1% skim milk TBST at 1:10000 dilution for 1 h at room temperature followed by TBST washes. The signal was detected as described above.
The band intensity was measured in the ImageLab Software (BIO-RAD) and the MLKL values adjusted for loading with GAPDH. The percentage of degradation was calculated by normalizing the compound treated values to the DMSO only control.

human MLKL (full length) = human MLKL (full length) (Homo sapiens (Human), UniProt Q8NB16); experiment: KINOMEscan binding assay, human MLKL (full length); settings: hMLKL, Table 25; read-out: MLKL (KD)
In short: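 Assay principle: test compound competes with immobilized bead ligand for kinase; kinase retained, then eluted, is counted by qPCR. Conditions were 1% DMSO final with 11 compound concentrations in 3-fold steps, 30,000 nM top for most. The Hill equation with slope −1 gave Kd.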

[1] = test system: Immortalised Mouse Dermal Fibroblasts (MDFs); experiment: Cellular assay: inhibition of TSI induced necroptosis, CellTitre-Glo viability; settings: Mus musculus, Fibroblast; MDF, 3 hours TSI cocktail, Table 27; read-out: Inhibition of TSI-induced necroptosis (IC50 cell-based assay) in MDF
In short: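 Immortalised mouse dermal fibroblasts (2200 cells/well) pretreated 30 min with compound, 10-point 1:3 series from 36 μM, 0.3% DMSO. Then 3 h at 37° C. with TNF (100 ng/ml), Smac mimetic (500 nM) and IDN-6556 (10 μM). CellTiter-Glo luminescence normalised to DMSO (100%) and DMSO+TSI (0%); IC50 from 4-parameter logistic fit.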

human MLKL (full length), sequence (Q8NB16 whole entry): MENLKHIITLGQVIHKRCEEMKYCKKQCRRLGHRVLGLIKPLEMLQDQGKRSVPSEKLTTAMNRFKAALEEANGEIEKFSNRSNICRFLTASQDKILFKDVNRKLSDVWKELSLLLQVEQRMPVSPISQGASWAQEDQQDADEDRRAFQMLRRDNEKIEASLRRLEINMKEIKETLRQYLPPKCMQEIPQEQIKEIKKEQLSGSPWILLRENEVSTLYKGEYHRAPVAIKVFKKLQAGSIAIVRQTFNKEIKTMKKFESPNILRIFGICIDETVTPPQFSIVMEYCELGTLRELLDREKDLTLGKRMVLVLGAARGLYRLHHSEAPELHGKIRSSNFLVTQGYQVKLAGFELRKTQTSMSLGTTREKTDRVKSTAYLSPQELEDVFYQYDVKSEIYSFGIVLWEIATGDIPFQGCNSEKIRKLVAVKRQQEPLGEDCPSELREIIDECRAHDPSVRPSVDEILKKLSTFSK
endogenous MLKL in MDF, sequence (Q9D2Y4 whole entry): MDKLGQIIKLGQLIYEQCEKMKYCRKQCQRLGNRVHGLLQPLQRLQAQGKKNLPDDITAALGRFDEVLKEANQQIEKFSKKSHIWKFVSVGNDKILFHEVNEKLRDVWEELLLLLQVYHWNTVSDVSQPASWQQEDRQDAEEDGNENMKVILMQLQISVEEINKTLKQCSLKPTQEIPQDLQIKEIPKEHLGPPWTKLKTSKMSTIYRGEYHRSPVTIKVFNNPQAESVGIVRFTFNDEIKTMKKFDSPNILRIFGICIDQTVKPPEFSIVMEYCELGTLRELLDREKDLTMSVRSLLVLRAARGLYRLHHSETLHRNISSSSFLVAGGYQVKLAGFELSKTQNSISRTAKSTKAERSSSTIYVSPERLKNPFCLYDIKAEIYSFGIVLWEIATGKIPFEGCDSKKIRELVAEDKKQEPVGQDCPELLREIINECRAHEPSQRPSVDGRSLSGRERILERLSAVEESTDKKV

Compound	DC50 (endogenous MLKL in MDF) [nM]	Kd (human MLKL (full length)) [nM]	IC50 [1] [nM]
C[C@H](Oc1cc(-c2nn(C)c3c(-c4cnn(C5CCN(C(=O)CCC6CCN(c7cccc8c7C(=O)N(C7CCC(=O)NC7=O)C8=O)CC6)CC5)c4)cnc(N)c23)ccc1NS(=O)(=O)C(F)F)c1ccc(F)cc1 (stereo partly drawn) [Compound 1043, N-[4-(4-amino-7-{1-[1-(3-{1-[2-(2,6-dioxopiperidin-3-yl)-1,3-dioxo-2,3-dihydro-1H-isoindol-4-yl]piperidin-4-yl}propanoyl)piperidin-4-yl]-1H-pyrazol-4-yl}-1-methyl-1H-pyrazolo[4,3-c]pyridin-3-yl)-2-[(1S)-1-(4-fluorophenyl)ethoxy]phenyl]-1,1-difluoromethanesulfonamide]	< 1000	10 to 1000	< 1000
Cc1ncsc1-c1ccc(CNC(=O)[C@@H]2C[C@@H](O)CN2C(=O)[C@@H](NC(=O)COCCOc2ccc(-c3cnc(N)c4c(-c5ccc(NS(=O)(=O)C(F)F)c(O[C@@H](C)c6ccc(F)cc6)c5)nn(C)c34)cc2)C(C)(C)C)cc1 [Compound 1049, (2S,4R)-1-[(2S)-2-{2-[2-(4-{4-amino-3-[4-(difluoromethanesulfonamido)-3-[(1S)-1-(4-fluorophenyl)ethoxy]phenyl]-1-methyl-1H-pyrazolo[4,3-c]pyridin-7-yl}phenoxy)ethoxy]acetamido}-3,3-dimethylbutanoyl]-4-hydroxy-N-{[4-(4-methyl-1,3-thiazol-5-yl)phenyl]methyl}pyrrolidine-2-carboxamide]	< 1000	10 to 1000	1000 to 10000
C[C@H](Oc1cc(-c2nn(C)c3c(-c4cnn(C5CCN(C(=O)CC6CCN(c7cccc8c7C(=O)N(C7CCC(=O)NC7=O)C8=O)C6)CC5)c4)cnc(N)c23)ccc1NS(=O)(=O)C(F)F)c1ccc(F)cc1 (stereo partly drawn) [Compound 1053, N-[4-(4-amino-7-{1-[1-(2-{1-[2-(2,6-dioxopiperidin-3-yl)-1,3-dioxo-2,3-dihydro-1H-isoindol-4-yl]pyrrolidin-3-yl}acetyl)piperidin-4-yl]-1H-pyrazol-4-yl}-1-methyl-1H-pyrazolo [4,3-c]pyridin-3-yl)-2-[(1S)-1-(4-fluorophenyl)ethoxy]phenyl]-1,1-difluoromethanesulfonamide]	< 1000	10 to 1000	< 1000
C[C@H](Oc1cc(-c2nn(C)c3c(-c4cnn(C5CCN(C(=O)[C@H]6C[C@@H](Nc7cccc8c7C(=O)N(C7CCC(=O)NC7=O)C8=O)C6)CC5)c4)cnc(N)c23)ccc1NS(=O)(=O)C(F)F)c1ccc(F)cc1 (stereo partly drawn) [Compound 1055, N-{4-[4-amino-1-methyl-7-(1-{1-[(cis)-3-{[2-(2,6-dioxopiperidin-3-yl)-1,3-dioxo-2,3-dihydro-1H-isoindol-4-yl]amino}cyclobutane-carbonyl]piperidin-4-yl}-1H-pyrazol-4-yl)-1H-pyrazolo[4,3-c]pyridin-3-yl]-2-[(1S)-1-(4-fluorophenyl)ethoxy]phenyl}-1,1-difluoromethanesulfonamide]	< 1000	10 to 1000	< 1000
C[C@H](Oc1cc(-c2nn(C)c3c(-c4cnn(C5CCN(C(=O)C6CN(c7cccc8c7C(=O)N(C7CCC(=O)NC7=O)C8=O)CCO6)CC5)c4)cnc(N)c23)ccc1NS(=O)(=O)C(F)F)c1ccc(F)cc1 (stereo partly drawn) [Compound 1070, N-(4-{4-amino-7-[1-(1-{4-[2-(2,6-dioxopiperidin-3-yl)-1,3-dioxo-2,3-dihydro-1H-isoindol-4-yl]morpholine-2-carbonyl}piperidin-4-yl)-1H-pyrazol-4-yl]-1-methyl-1H-pyrazolo[4,3-c]pyridin-3-yl}-2-[(1S)-1-(4-fluorophenyl)ethoxy]phenyl)-1,1-difluoromethanesulfonamide]	< 1000	10 to 1000	< 1000
C[C@H](Oc1cc(-c2nn(C)c3c(-c4cnn(C5CCN(C(=O)[C@H]6CC[C@@H](Nc7cccc8c7C(=O)N(C7CCC(=O)NC7=O)C8=O)CC6)CC5)c4)cnc(N)c23)ccc1NS(=O)(=O)C(F)F)c1ccc(F)cc1 (some centres unmarked) [Compound 1071]	< 1000	< 10	< 1000
C[C@H](Oc1cc(-c2nn(C)c3c(-c4cnn(C5CCN(C(=O)CCC6CCN(c7cc8c(cc7F)C(=O)N(C7CCC(=O)NC7=O)C8=O)CC6)CC5)c4)cnc(N)c23)ccc1NS(=O)(=O)C(F)F)c1ccc(F)cc1 (stereo partly drawn) [Compound 1087, N-[4-(4-amino-7-{1-[1-(3-{1-[2-(2,6-dioxopiperidin-3-yl)-6-fluoro-1,3-dioxo-2,3-dihydro-1H-isoindol-5-yl]piperidin-4-yl}propanoyl)piperidin-4-yl]-1H-pyrazol-4-yl}-1-methyl-1H-pyrazolo[4,3-c]pyridin-3-yl)-2-[(1S)-1-(4-fluorophenyl)ethoxy]phenyl]-1,1-difluoromethanesulfonamide]	< 1000	10 to 1000	< 1000
CN[C@@H](C)C(=O)N[C@H](C(=O)N1CC(NC(=O)CCCCCCCCn2cc(-c3cnc(N)c4c(-c5ccc(NS(=O)(=O)C(F)F)c(O[C@@H](C)c6ccc(F)cc6)c5)nn(C)c34)cn2)C[C@H]1C(=O)Nc1c(F)cccc1F)C(C)(C)C (stereo partly drawn) [Compound 1090, (2S)-4-[9-(4-{4-amino-3-[4-(difluoromethanesulfonamido)-3-[(1S)-1-(4-fluorophenyl)ethoxy]phenyl]-1-methyl-1H-pyrazolo[4,3-c]pyridin-7-yl}-1H-pyrazol-1-yl)nonanamido]-N-(2,6-difluorophenyl)-1-[(2S)-3,3-dimethyl-2-[(2S)-2-(methylamino)propanamido]butanoyl]pyrrolidine-2-carboxamide]	1000 to 10000	< 10	1000 to 10000
C[C@H](Oc1cc(-c2nn(C)c3c(-c4cnn(C5CCN(C(=O)[C@H]6C[C@H](Nc7ccc8c(c7)C(=O)N(C7CCC(=O)NC7=O)C8=O)C6)CC5)c4)cnc(N)c23)ccc1NS(=O)(=O)C(F)F)c1ccc(F)cc1 (stereo partly drawn) [Compound 1094, N-{4-[4-amino-1-methyl-7-(1-{1-[(trans)-3-{[2-(2,6-dioxopiperidin-3-yl)-1,3-dioxo-2,3-dihydro-1H-isoindol-5-yl]amino}cyclobutanecarbonyl]piperidin-4-yl}-1H-pyrazol-4-yl)-1H-pyrazolo[4,3-c]pyridin-3-yl]-2-[(1S)-1-(4-fluorophenyl)ethoxy]phenyl}-1,1-difluoromethanesulfonamide]	< 1000	< 10	< 1000
C[C@H](Oc1cc(-c2nn(C)c3c(-c4cnn(C5CCN(C(=O)c6ccc7c(c6)CN(C6CCC(=O)NC6=O)C7=O)CC5)c4)cnc(N)c23)ccc1NS(=O)(=O)C(F)F)c1ccc(F)cc1 (stereo partly drawn) [Compound 1096, N-{4-[4-amino-7-(1-{1-[2-(2,6-dioxopiperidin-3-yl)-1-oxo-2,3-dihydro-1H-isoindole-5-carbonyl]piperidin-4-yl}-1H-pyrazol-4-yl)-1-methyl-1H-pyrazolo[4,3-c]pyridin-3-yl]-2-[(1S)-1-(4-fluorophenyl)ethoxy]phenyl}-1,1-difluoromethanesulfonamide]	< 1000	< 10	1000 to 10000
C[C@H](Oc1cc(-c2nn(C)c3c(-c4cnn(C5CCN(C(=O)Cc6cccc7c6C(=O)N(C6CCC(=O)NC6=O)C7=O)CC5)c4)cnc(N)c23)ccc1NS(=O)(=O)C(F)F)c1ccc(F)cc1 (stereo partly drawn) [Compound 1137, N-(4-{4-amino-7-[1-(1-{2-[2-(2,6-dioxopiperidin-3-yl)-1,3-dioxo-2,3-dihydro-1H-isoindol-4-yl]acetyl}piperidin-4-yl)-1H-pyrazol-4-yl]-1-methyl-1H-pyrazolo[4,3-c]pyridin-3-yl}-2-[(1S)-1-(fluorophenyl)ethoxy]phenyl)-1,1-difluoromethanesulfonamide]	< 1000	–	1000 to 10000
